Molecular target: T1, human PLK3 (Homo sapiens, UniProt Q9H4B4)
T1 construct: expressed in transfected cells
Format: cell-based

T1 sequence (Q9H4B4 whole entry): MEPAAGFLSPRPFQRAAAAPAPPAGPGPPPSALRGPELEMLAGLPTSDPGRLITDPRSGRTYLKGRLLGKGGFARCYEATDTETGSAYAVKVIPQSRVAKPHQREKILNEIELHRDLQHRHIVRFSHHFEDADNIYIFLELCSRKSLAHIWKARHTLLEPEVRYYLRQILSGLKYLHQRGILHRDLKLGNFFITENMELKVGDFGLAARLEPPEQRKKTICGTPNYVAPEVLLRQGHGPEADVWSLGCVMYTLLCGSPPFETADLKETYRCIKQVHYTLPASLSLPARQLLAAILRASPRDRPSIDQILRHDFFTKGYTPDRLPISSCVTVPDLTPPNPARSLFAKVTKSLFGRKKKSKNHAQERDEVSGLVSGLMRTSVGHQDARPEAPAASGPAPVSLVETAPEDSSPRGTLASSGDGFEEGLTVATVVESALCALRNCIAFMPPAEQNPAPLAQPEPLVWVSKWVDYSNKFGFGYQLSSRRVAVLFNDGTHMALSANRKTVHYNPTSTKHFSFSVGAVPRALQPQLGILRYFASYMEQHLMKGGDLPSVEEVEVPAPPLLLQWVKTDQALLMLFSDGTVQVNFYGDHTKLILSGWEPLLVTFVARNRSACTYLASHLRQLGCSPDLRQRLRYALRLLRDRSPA

Compound: COc1cc2ncn(-c3cc(OCc4ccccc4C(F)(F)F)c(C(N)=O)s3)c2cc1OC [GW843682X]
- effect on the anti-HIV-1 ability of human PLK3: can inhibit the anti-HIV-1 ability of human PLK3
- expression level of PLK3: not changed
